Each block holds one molecule with its values, some of them ahead of it.
Key:
Test in all cases: biochemical
Design in all cases: KINOMEscan (DiscoverX) competition binding screen of 97 human kinases, percent of control at 10 uM
DCAMKL1 = target: T1, DCAMKL1 (Homo sapiens, UniProt O15075)
T1 construct: gene DCLK1
Protocol: (§1) The KINOMEscan profiling of the inhibitors were performed as per directions by the manufacturer (DiscoverX) against a panel of human protein kinases.

PDGFRA = PDGFRA (Homo sapiens, UniProt P16234)
Protocol: as §1

p38-alpha = target: T2, p38-alpha (Homo sapiens, UniProt Q16539)
T2 construct: gene MAPK14
Protocol: as §1

ROCK2 = ROCK2 (Homo sapiens, UniProt O75116)
Protocol: as §1

PIK3C2B = PIK3C2B (Homo sapiens, UniProt O00750)
Protocol: as §1

[1] = target: T3, ABL1(E255K)-phosphorylated (Homo sapiens, UniProt P00519, E255K)
T3 construct: phosphorylated
Protocol: as §1

SRPK3 = SRPK3 (Homo sapiens, UniProt Q9UPE1)
Protocol: as §1

AURKB = AURKB (Homo sapiens, UniProt Q96GD4)
Protocol: as §1

CDK9 = CDK9 (Homo sapiens, UniProt P50750)
Protocol: as §1

MARK3 = MARK3 (Homo sapiens, UniProt P27448)
Protocol: as §1

PKAC-alpha = target: T4, PKAC-alpha (Homo sapiens, UniProt P17612)
T4 construct: gene PRKACA
Protocol: as §1

p38-beta = target: T5, p38-beta (Homo sapiens, UniProt Q15759)
T5 construct: gene MAPK11
Protocol: as §1

PLK4 = PLK4 (Homo sapiens, UniProt O00444)
Protocol: as §1

BMPR2 = BMPR2 (Homo sapiens, UniProt Q13873)
Protocol: as §1

JNK3 = target: T6, JNK3 (Homo sapiens, UniProt P53779)
T6 construct: gene MAPK10
Protocol: as §1

MEK2 = target: T7, MEK2 (Homo sapiens, UniProt P36507)
T7 construct: gene MAP2K2
Protocol: as §1

ERBB2 = ERBB2 (Homo sapiens, UniProt P04626)
Protocol: as §1

PAK4 = PAK4 (Homo sapiens, UniProt O96013)
Protocol: as §1

CSNK1D = CSNK1D (Homo sapiens, UniProt P48730)
Protocol: as §1

TGFBR1 = TGFBR1 (Homo sapiens, UniProt P36897)
Protocol: as §1

PLK1 = PLK1 (Homo sapiens, UniProt P53350)
Protocol: as §1

MKNK2 = MKNK2 (Homo sapiens, UniProt Q9HBH9)
Protocol: as §1

FGFR3 = FGFR3 (Homo sapiens, UniProt P22607)
Protocol: as §1

PIM3 = PIM3 (Homo sapiens, UniProt Q86V86)
Protocol: as §1

[2] = binding competition, % of control, read-out: RU-301 %Ctrl @ 10000nM
[3] = read-out: R428 %Ctrl @ 10000nM, binding competition

Sequence of CDK9 (P50750 whole entry): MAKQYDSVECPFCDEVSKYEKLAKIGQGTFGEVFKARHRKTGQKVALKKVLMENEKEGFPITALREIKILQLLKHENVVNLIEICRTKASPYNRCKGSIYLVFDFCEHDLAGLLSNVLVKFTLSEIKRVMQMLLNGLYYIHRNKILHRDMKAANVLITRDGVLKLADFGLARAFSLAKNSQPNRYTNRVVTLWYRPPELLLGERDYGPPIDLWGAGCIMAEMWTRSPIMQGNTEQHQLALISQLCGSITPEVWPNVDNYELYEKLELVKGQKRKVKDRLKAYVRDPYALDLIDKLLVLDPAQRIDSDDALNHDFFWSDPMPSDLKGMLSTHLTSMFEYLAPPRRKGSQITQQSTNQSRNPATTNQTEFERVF
Sequence of BMPR2 (Q13873 whole entry): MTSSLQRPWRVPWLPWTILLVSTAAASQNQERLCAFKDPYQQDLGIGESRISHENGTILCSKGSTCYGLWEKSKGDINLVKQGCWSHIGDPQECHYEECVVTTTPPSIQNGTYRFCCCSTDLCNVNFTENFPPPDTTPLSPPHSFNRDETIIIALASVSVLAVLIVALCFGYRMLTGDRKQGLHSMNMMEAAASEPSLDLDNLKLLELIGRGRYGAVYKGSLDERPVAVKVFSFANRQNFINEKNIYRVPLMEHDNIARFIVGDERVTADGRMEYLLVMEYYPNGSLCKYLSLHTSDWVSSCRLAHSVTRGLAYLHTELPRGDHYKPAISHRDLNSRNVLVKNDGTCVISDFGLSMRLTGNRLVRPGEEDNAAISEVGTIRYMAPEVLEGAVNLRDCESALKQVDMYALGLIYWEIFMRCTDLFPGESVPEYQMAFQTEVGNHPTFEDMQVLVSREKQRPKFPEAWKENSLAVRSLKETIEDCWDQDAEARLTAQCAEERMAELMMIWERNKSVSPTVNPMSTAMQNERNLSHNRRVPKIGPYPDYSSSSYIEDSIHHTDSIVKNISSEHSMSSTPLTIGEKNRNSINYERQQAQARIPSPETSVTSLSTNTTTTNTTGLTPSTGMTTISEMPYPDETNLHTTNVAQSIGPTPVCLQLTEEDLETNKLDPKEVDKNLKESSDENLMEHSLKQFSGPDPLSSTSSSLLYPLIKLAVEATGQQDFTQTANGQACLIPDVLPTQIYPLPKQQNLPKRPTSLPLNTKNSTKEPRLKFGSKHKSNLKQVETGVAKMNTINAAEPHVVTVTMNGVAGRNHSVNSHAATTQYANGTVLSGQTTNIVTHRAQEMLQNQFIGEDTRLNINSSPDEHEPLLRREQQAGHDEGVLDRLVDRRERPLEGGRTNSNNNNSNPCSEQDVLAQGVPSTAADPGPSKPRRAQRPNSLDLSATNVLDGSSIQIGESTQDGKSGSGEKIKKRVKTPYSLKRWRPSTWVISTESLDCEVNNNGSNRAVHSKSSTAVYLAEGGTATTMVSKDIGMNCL
T3 sequence (P00519 whole entry E255K): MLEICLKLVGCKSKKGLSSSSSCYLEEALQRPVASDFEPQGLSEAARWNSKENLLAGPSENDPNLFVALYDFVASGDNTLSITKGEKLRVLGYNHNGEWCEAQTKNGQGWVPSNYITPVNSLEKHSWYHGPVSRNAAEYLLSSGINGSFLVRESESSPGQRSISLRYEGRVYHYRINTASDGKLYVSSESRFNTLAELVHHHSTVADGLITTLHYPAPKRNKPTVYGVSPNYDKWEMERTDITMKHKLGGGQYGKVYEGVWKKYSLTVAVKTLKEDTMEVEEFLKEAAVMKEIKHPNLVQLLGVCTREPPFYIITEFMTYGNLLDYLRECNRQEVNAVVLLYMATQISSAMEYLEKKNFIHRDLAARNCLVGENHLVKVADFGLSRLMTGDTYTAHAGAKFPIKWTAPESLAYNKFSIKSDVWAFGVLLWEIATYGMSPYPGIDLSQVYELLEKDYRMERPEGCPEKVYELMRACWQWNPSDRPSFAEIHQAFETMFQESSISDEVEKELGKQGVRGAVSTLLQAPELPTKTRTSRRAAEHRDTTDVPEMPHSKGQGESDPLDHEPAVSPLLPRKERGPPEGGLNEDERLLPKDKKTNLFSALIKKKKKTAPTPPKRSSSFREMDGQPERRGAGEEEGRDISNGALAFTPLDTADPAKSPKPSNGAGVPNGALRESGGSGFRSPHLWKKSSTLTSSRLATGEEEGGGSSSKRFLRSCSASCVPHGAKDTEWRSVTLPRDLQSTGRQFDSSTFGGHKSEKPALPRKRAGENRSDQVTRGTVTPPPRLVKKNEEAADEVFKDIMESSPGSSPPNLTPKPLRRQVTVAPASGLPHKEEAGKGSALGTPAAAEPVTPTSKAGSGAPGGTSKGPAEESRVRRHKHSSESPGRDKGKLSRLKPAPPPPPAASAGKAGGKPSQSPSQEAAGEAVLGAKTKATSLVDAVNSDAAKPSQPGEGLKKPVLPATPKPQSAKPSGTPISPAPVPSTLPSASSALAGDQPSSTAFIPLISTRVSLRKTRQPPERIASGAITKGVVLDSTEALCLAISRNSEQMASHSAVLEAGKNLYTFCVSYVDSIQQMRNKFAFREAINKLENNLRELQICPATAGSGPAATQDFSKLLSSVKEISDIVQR
Sequence of PAK4 (O96013 whole entry): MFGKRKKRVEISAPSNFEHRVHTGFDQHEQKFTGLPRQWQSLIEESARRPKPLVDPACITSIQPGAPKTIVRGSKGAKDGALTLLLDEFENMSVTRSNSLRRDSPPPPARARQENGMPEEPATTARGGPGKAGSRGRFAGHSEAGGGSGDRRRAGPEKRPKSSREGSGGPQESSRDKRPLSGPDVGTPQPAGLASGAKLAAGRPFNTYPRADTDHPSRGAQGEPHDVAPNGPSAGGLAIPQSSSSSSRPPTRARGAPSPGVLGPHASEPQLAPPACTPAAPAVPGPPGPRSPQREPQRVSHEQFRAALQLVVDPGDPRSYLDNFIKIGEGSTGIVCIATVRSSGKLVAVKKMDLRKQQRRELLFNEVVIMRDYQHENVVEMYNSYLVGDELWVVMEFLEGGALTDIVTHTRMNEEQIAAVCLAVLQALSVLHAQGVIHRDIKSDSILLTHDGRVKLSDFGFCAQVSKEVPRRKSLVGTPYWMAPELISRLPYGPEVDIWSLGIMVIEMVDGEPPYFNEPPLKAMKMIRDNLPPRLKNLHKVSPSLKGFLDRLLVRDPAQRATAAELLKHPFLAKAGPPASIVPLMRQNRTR
T1 sequence (O15075 whole entry): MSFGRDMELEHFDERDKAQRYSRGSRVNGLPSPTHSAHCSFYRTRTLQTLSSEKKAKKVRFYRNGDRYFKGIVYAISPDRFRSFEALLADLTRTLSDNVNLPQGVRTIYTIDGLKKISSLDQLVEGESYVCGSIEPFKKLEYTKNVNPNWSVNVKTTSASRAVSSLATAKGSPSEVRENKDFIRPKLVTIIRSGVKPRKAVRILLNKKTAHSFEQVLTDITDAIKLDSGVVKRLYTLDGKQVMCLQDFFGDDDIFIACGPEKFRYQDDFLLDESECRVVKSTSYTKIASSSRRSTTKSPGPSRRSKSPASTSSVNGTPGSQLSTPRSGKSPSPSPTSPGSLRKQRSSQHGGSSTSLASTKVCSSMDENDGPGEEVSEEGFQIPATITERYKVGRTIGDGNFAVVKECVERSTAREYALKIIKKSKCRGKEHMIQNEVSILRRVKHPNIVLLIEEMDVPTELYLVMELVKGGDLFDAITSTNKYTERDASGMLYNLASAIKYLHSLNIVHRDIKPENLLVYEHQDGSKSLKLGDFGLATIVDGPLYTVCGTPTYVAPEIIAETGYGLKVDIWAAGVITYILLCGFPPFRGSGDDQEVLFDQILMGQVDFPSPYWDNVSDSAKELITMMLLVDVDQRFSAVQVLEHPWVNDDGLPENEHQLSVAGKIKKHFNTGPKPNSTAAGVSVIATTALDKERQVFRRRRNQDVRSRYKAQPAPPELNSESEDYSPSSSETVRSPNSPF
Sequence of PDGFRA (P16234 whole entry): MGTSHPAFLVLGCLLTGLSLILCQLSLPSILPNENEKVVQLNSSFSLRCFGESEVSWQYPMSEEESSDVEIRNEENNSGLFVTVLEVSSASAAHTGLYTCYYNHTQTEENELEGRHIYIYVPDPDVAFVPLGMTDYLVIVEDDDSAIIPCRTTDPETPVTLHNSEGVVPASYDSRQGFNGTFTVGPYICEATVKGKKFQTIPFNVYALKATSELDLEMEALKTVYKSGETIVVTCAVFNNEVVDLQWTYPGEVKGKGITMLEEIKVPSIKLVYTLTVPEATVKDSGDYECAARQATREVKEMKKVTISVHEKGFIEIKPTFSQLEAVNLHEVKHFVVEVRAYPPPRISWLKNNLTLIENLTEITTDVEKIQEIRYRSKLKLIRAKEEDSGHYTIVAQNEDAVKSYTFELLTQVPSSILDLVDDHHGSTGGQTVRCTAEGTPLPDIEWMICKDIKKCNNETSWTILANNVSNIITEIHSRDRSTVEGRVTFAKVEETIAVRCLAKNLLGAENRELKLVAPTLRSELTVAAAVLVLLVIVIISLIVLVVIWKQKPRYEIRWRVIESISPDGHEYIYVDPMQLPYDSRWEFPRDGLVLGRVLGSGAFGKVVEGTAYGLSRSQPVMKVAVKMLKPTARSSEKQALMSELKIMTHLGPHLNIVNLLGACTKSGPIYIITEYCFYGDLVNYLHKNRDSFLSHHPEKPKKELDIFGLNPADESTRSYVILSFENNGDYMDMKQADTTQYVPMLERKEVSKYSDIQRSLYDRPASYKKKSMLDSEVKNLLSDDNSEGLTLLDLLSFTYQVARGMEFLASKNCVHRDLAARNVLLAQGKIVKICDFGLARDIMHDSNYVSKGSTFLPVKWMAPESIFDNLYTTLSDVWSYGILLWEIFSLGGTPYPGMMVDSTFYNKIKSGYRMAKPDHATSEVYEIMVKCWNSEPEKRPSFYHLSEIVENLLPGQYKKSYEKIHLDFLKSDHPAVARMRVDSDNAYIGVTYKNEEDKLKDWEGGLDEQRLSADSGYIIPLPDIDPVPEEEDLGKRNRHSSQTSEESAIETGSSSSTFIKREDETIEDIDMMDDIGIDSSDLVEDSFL

remaining binding at 10 µM (DCAMKL1; [2]): 81%
remaining binding at 10 µM (PDGFRA; [2]): 99%
remaining binding at 10 µM (p38-alpha; [2]): 93%
remaining binding at 10 µM (ROCK2; [2]): 75%
remaining binding at 10 µM (PIK3C2B; [2]): 100%
remaining binding at 10 µM [1, 2]: 94%
remaining binding at 10 µM (SRPK3; [2]): 80%
remaining binding at 10 µM (AURKB; [2]): 73%
remaining binding at 10 µM (CDK9; [2]): 95%
remaining binding at 10 µM (MARK3; [2]): 87%
remaining binding at 10 µM (PKAC-alpha; [2]): 90%
remaining binding at 10 µM (p38-beta; [2]): 100%
remaining binding at 10 µM (PLK4; [2]): 81%
remaining binding at 10 µM (BMPR2; [2]): 78%
remaining binding at 10 µM (JNK3; [2]): 100%
remaining binding at 10 µM (MEK2; [2]): 71%
remaining binding at 10 µM (ERBB2; [2]): 94%
remaining binding at 10 µM (PAK4; [2]): 93%
remaining binding at 10 µM (CSNK1D; [2]): 94%
remaining binding at 10 µM (TGFBR1; [2]): 100%
remaining binding at 10 µM (PLK1; [2]): 95%
remaining binding at 10 µM (MKNK2; [2]): 100%
remaining binding at 10 µM (FGFR3; [2]): 91%
remaining binding at 10 µM (PIM3; [2]): 86%
Compound: Cc1cc(CSc2ccccc2C(=O)NCCNc2ccc(C(F)(F)F)cc2[N+](=O)[O-])on1 [RU-301]

percent of control binding at 10 µM (DCAMKL1; [3]): 98%
percent of control binding at 10 µM (PDGFRA; [3]): 1.4%
percent of control binding at 10 µM (p38-alpha; [3]): 78%
percent of control binding at 10 µM (ROCK2; [3]): 3%
percent of control binding at 10 µM (PIK3C2B; [3]): 31%
percent of control binding at 10 µM [1, 3]: 0.25%
percent of control binding at 10 µM (SRPK3; [3]): 3.8%
percent of control binding at 10 µM (AURKB; [3]): 0.45%
percent of control binding at 10 µM (CDK9; [3]): 92%
percent of control binding at 10 µM (MARK3; [3]): 49%
percent of control binding at 10 µM (PKAC-alpha; [3]): 48%
percent of control binding at 10 µM (p38-beta; [3]): 84%
percent of control binding at 10 µM (PLK4; [3]): 1.7%
percent of control binding at 10 µM (BMPR2; [3]): 23%
percent of control binding at 10 µM (JNK3; [3]): 46%
percent of control binding at 10 µM (MEK2; [3]): 0.2%
percent of control binding at 10 µM (ERBB2; [3]): 46%
percent of control binding at 10 µM (PAK4; [3]): 85%
percent of control binding at 10 µM (CSNK1D; [3]): 98%
percent of control binding at 10 µM (TGFBR1; [3]): 75%
percent of control binding at 10 µM (PLK1; [3]): 2.9%
percent of control binding at 10 µM (MKNK2; [3]): 0%
percent of control binding at 10 µM (FGFR3; [3]): 30%
percent of control binding at 10 µM (PIM3; [3]): 84%
Compound: Nc1nc(Nc2ccc3c(c2)CC[C@@H](N2CCCC2)CC3)nn1-c1cc2c(nn1)-c1ccccc1CCC2 [R428]
